ChEMBL document CHEMBL1201862, “PubChem BioAssay data set” (2004)
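Assay format: 96-well plates, 48-hour exposure. GI50 = concentration required for 50% inhibition of growth.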 The source made the active and inactive calls. Rule as the data show it: active = GI50 up to about 1.1 µM and inactive = higher.

Experiments:
Test in all cases: DTP human tumour cell line panel, 48 h
SK-MEL-2 = test system: SK-MEL-2
MOLT-4 = test system: MOLT-4
A549 = test system: A549
MDA-MB-435 = test system: MDA-MB-435
HT-29 = test system: HT-29
T47D = test system: T47D
A498 = test system: A498
HCT-15 = test system: HCT-15
UO-31 = test system: UO-31
RXF 393 = test system: RXF 393
MCF7 = test system: MCF7
Hs-578T = test system: Hs-578T
PC-3 = test system: PC-3
IGROV-1 = test system: IGROV-1
K562 = test system: K562
RPMI-8226 = test system: RPMI-8226
SN12C = test system: SN12C
LOX IMVI = test system: LOX IMVI
SF-539 = test system: SF-539
TK-10 = test system: TK-10
OVCAR-5 = test system: OVCAR-5
OVCAR-8 = test system: OVCAR-8
NCI-H226 = test system: NCI-H226
M14 = test system: M14
SF-268 = test system: SF-268
UACC-257 = test system: UACC-257
786-0 = test system: 786-0
SW-620 = test system: SW-620
SF-295 = test system: SF-295
HL-60 = test system: HL-60
CCRF-CEM = test system: CCRF-CEM
NCI-H23 = test system: NCI-H23
MDA-MB-231 = test system: MDA-MB-231
SNB-19 = test system: SNB-19
HOP-62 = test system: HOP-62
UACC-62 = test system: UACC-62
COLO 205 = test system: COLO 205
CAKI-1 = test system: CAKI-1
SR = test system: SR
SK-MEL-28 = test system: SK-MEL-28
DU-145 = test system: DU-145
HOP-92 = test system: HOP-92
SNB-75 = test system: SNB-75
SK-MEL-5 = test system: SK-MEL-5
ACHN = test system: ACHN
BT-549 = test system: BT-549
OVCAR-3 = test system: OVCAR-3
U-251 = test system: U-251
KM12 = test system: KM12
HCT-116 = test system: HCT-116
EKVX = test system: EKVX
MDA-N = test system: MDA-N
NCI-H460 = test system: NCI-H460
NCI/ADR-RES = test system: NCI/ADR-RES
OVCAR-4 = test system: OVCAR-4
NCI-H522 = test system: NCI-H522
SK-OV-3 = test system: SK-OV-3

For `Nc1ncc(Sc2ccccc2C(=O)O)s1`, which GI50 (SK-MEL-2) is on record?
The GI50 was > 100 µM (inactive).

And the GI50 (MOLT-4)?
The GI50 was > 100 µM (inactive).

And the GI50 (A549)?
Its GI50 is > 100 µM (inactive).

What about the GI50 (MDA-MB-435) of the same molecule?
Its GI50 is > 100 µM (inactive).

What about the GI50 (HT-29) of the same molecule?
The GI50 was > 100 µM (inactive).

What about the GI50 (T47D) of the same molecule?
The GI50 was > 100 µM (inactive).

What about the GI50 (A498) of the same molecule?
The GI50 was > 100 µM (inactive).

And the GI50 (HCT-15)?
The GI50 was > 100 µM.

What about the GI50 (UO-31) of the same molecule?
Its GI50 is > 100 µM (inactive).

And the GI50 (RXF 393)?
The GI50 was > 100 µM (inactive).

What about the GI50 (MCF7) of the same molecule?
The GI50 was > 100 µM (inactive).

And the GI50 (Hs-578T)?
Its GI50 is > 100 µM (inactive).

And the GI50 (PC-3)?
The GI50 was > 100 µM (inactive).

And the GI50 (IGROV-1)?
The GI50 was > 100 µM (inactive).

And the GI50 (K562)?
Its GI50 is > 100 µM (inactive).

And the GI50 (RPMI-8226)?
Its GI50 is > 100 µM (inactive).

What about the GI50 (SN12C) of the same molecule?
The GI50 was > 100 µM (inactive).

What about the GI50 (LOX IMVI) of the same molecule?
Its GI50 is > 100 µM (inactive).

What about the GI50 (SF-539) of the same molecule?
Its GI50 is > 100 µM (inactive).

What about the GI50 (TK-10) of the same molecule?
The GI50 was > 100 µM (inactive).

And the GI50 (OVCAR-5)?
The GI50 was > 100 µM (inactive).

What about the GI50 (OVCAR-8) of the same molecule?
The GI50 was > 100 µM (inactive).

And the GI50 (NCI-H226)?
The GI50 was > 100 µM (inactive).

What about the GI50 (M14) of the same molecule?
The GI50 was > 100 µM (inactive).

What about the GI50 (SF-268) of the same molecule?
Its GI50 is > 100 µM (inactive).

What about the GI50 (UACC-257) of the same molecule?
The GI50 was > 100 µM (inactive).

What about the GI50 (786-0) of the same molecule?
The GI50 was > 100 µM (inactive).

What about the GI50 (SW-620) of the same molecule?
Its GI50 is > 100 µM (inactive).

What about the GI50 (SF-295) of the same molecule?
The GI50 was > 100 µM (inactive).

And the GI50 (HL-60)?
The GI50 was > 100 µM (inactive).

And the GI50 (CCRF-CEM)?
Its GI50 is > 100 µM (inactive).

What about the GI50 (NCI-H23) of the same molecule?
The GI50 was > 100 µM (inactive).

And the GI50 (MDA-MB-231)?
The GI50 was > 100 µM (inactive).

What about the GI50 (SNB-19) of the same molecule?
Its GI50 is > 100 µM (inactive).

What about the GI50 (HOP-62) of the same molecule?
Its GI50 is > 100 µM (inactive).

What about the GI50 (UACC-62) of the same molecule?
Its GI50 is > 100 µM (inactive).

And the GI50 (COLO 205)?
Its GI50 is > 100 µM (inactive).

What about the GI50 (CAKI-1) of the same molecule?
The GI50 was > 100 µM (inactive).

And the GI50 (SR)?
Its GI50 is > 100 µM (inactive).

And the GI50 (SK-MEL-28)?
The GI50 was > 100 µM (inactive).

And the GI50 (DU-145)?
The GI50 was > 100 µM (inactive).

And the GI50 (HOP-92)?
Its GI50 is > 100 µM (inactive).

And the GI50 (SNB-75)?
Its GI50 is > 100 µM (inactive).

What about the GI50 (SK-MEL-5) of the same molecule?
The GI50 was > 100 µM (inactive).

And the GI50 (ACHN)?
The GI50 was > 100 µM (inactive).

What about the GI50 (BT-549) of the same molecule?
The GI50 was > 100 µM (inactive).

What about the GI50 (OVCAR-3) of the same molecule?
Its GI50 is > 100 µM (inactive).

What about the GI50 (U-251) of the same molecule?
The GI50 was > 100 µM (inactive).

What about the GI50 (KM12) of the same molecule?
Its GI50 is > 100 µM (inactive).

What about the GI50 (HCT-116) of the same molecule?
Its GI50 is > 100 µM (inactive).

What about the GI50 (EKVX) of the same molecule?
The GI50 was > 100 µM (inactive).

What about the GI50 (MDA-N) of the same molecule?
The GI50 was > 100 µM (inactive).

And the GI50 (NCI-H460)?
Its GI50 is > 100 µM (inactive).

What about the GI50 (NCI/ADR-RES) of the same molecule?
Its GI50 is > 100 µM (inactive).

How did the GI50 (SK-MEL-2) turn out when `COc1cc2c3c(c1O)-c1c(ccc(OC)c1OC)CC3N(C)CC2` (stereo not drawn) was run?
The GI50 was > 100 µM (inactive).

And the GI50 (MOLT-4)?
The GI50 was > 100 µM (inactive).

And the GI50 (A549)?
Its GI50 is > 100 µM (inactive).

And the GI50 (MDA-MB-435)?
The GI50 was > 100 µM (inactive).

And the GI50 (HT-29)?
The GI50 was 77.4 µM (inactive).

And the GI50 (T47D)?
Its GI50 is > 100 µM (inactive).

And the GI50 (A498)?
Its GI50 is > 100 µM (inactive).

And the GI50 (HCT-15)?
Its GI50 is > 100 µM.

And the GI50 (UO-31)?
Its GI50 is > 100 µM (inactive).

What about the GI50 (RXF 393) of the same molecule?
The GI50 was > 100 µM (inactive).

What about the GI50 (MCF7) of the same molecule?
The GI50 was > 100 µM (inactive).

And the GI50 (Hs-578T)?
The GI50 was > 100 µM (inactive).

What about the GI50 (PC-3) of the same molecule?
Its GI50 is > 100 µM (inactive).

And the GI50 (IGROV-1)?
Its GI50 is > 100 µM (inactive).

And the GI50 (RPMI-8226)?
Its GI50 is > 100 µM (inactive).

What about the GI50 (SN12C) of the same molecule?
Its GI50 is > 100 µM (inactive).

What about the GI50 (LOX IMVI) of the same molecule?
Its GI50 is > 100 µM (inactive).

What about the GI50 (SF-539) of the same molecule?
Its GI50 is > 100 µM (inactive).

What about the GI50 (TK-10) of the same molecule?
The GI50 was > 100 µM (inactive).

And the GI50 (OVCAR-5)?
Its GI50 is > 100 µM (inactive).

And the GI50 (OVCAR-8)?
The GI50 was > 100 µM (inactive).

What about the GI50 (NCI-H226) of the same molecule?
Its GI50 is > 100 µM (inactive).

What about the GI50 (M14) of the same molecule?
Its GI50 is > 100 µM (inactive).

And the GI50 (OVCAR-4)?
The GI50 was > 100 µM (inactive).

What about the GI50 (SF-268) of the same molecule?
Its GI50 is > 100 µM (inactive).

What about the GI50 (UACC-257) of the same molecule?
Its GI50 is > 100 µM (inactive).

And the GI50 (786-0)?
Its GI50 is > 100 µM (inactive).

What about the GI50 (NCI-H522) of the same molecule?
Its GI50 is > 100 µM (inactive).

What about the GI50 (SW-620) of the same molecule?
Its GI50 is > 100 µM (inactive).

And the GI50 (SF-295)?
Its GI50 is > 100 µM (inactive).

What about the GI50 (HL-60) of the same molecule?
Its GI50 is 40.9 µM (inactive).

And the GI50 (CCRF-CEM)?
The GI50 was 91.4 µM (inactive).

And the GI50 (NCI-H23)?
Its GI50 is > 100 µM (inactive).

And the GI50 (MDA-MB-231)?
The GI50 was > 100 µM (inactive).

And the GI50 (SNB-19)?
The GI50 was > 100 µM (inactive).

What about the GI50 (UACC-62) of the same molecule?
The GI50 was > 100 µM (inactive).

And the GI50 (COLO 205)?
The GI50 was > 100 µM (inactive).

And the GI50 (CAKI-1)?
The GI50 was > 100 µM (inactive).

What about the GI50 (SR) of the same molecule?
Its GI50 is > 100 µM (inactive).

And the GI50 (DU-145)?
The GI50 was > 100 µM (inactive).

And the GI50 (HOP-92)?
Its GI50 is > 100 µM (inactive).

And the GI50 (SNB-75)?
Its GI50 is > 100 µM (inactive).

What about the GI50 (SK-OV-3) of the same molecule?
The GI50 was > 100 µM (inactive).

What about the GI50 (SK-MEL-5) of the same molecule?
The GI50 was > 100 µM (inactive).

And the GI50 (ACHN)?
Its GI50 is > 100 µM (inactive).

What about the GI50 (BT-549) of the same molecule?
Its GI50 is > 100 µM (inactive).

And the GI50 (OVCAR-3)?
Its GI50 is > 100 µM (inactive).

What about the GI50 (U-251) of the same molecule?
The GI50 was > 100 µM (inactive).

And the GI50 (KM12)?
Its GI50 is > 100 µM (inactive).

What about the GI50 (HCT-116) of the same molecule?
Its GI50 is > 100 µM (inactive).

What about the GI50 (EKVX) of the same molecule?
Its GI50 is > 100 µM (inactive).

What about the GI50 (MDA-N) of the same molecule?
Its GI50 is > 100 µM (inactive).

What about the GI50 (NCI-H460) of the same molecule?
The GI50 was > 100 µM (inactive).

What about the GI50 (NCI/ADR-RES) of the same molecule?
The GI50 was > 100 µM (inactive).
